Laboratory results published in patent US9718821B2, “Pyridopyrimidinone inhibitors of kinases” (AbbVie Inc., priority 2012, dated 2017).

Biological target: T1, GST-tagged-Wee1 kinase (Homo sapiens, UniProt P30291)
T1 construct: purchased Carnabio 05-177
Assay: Wee1 time-resolved fluorescence equilibrium binding assay (displacement of Oregon Green-labeled ATP-competitive kinase probe)
Conditions: enzyme binding data; GST-tagged-Wee1 kinase 2 nM, fluorescent probe 300 nM, inhibitor 0.003 to 10 micromolar, 1 hour incubation; read-out: Wee-1 binding (Ki nM)
Method: Wee1 kinase was assayed using a time-resolved fluorescence equilibrium binding assay monitoring displacement of a rapidly reversible Oregon Green-labeled ATP-competitive kinase probe (N-(2-(2-(2-(4-(4-(5-chloro-4-(2-(1-hydroxycyclobutyl)thiazol-5-yl)-1H-pyrrolo[2,3-b]pyridin-2-yl)phenyl)piperazin-1-yl)ethoxy)ethoxy)ethyl)-2′,7′-difluoro-3′,6′-dihydroxy-3-oxo-3H-spiro[isobenzofuran-1,9′-xanthene]-5-carboxamide) by competitive Wee1 inhibitors.
Table 1 depicts enzyme binding data (Ki)for exemplary compounds.

T1 sequence (P30291 whole entry): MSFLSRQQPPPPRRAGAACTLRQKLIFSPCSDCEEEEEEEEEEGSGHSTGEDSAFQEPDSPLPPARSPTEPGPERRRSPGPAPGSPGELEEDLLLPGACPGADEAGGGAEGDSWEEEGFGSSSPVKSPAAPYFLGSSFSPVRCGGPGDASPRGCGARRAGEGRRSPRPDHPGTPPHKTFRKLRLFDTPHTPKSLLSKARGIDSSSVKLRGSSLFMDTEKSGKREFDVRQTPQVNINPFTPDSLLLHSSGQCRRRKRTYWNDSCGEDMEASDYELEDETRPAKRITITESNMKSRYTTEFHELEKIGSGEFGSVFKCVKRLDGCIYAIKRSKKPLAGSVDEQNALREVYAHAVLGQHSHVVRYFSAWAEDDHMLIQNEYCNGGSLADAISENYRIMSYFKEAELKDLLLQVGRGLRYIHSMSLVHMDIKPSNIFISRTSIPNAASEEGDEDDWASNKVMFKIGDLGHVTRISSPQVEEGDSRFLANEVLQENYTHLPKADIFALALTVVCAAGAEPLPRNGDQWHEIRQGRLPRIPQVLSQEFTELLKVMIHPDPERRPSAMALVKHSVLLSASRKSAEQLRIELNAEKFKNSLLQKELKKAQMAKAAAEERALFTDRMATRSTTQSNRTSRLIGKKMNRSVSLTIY

Compound	Ki [nM]
Cc1cn(-c2c(F)cccc2Cl)c(=O)c2cnc(Nc3ccc(C4CCN(C)CC4)cc3)nc12 [Example 71, 6-(2-chloro-6-fluorophenyl)-8-methyl-2-{[4-(1-methylpiperidin-4-yl)phenyl]amino}pyrido[4,3-d]pyrimidin-5(6H)-one]	1.2
Cc1cn(-c2c(F)cccc2Cl)c(=O)c2cnc(Nc3ccc4c(c3)CCNC4)nc12 [Example 72, 6-(2-chloro-6-fluorophenyl)-8-methyl-2-(1,2,3,4-tetrahydroisoquinolin-6-ylamino)pyrido[4,3-d]pyrimidin-5(6H)-one]	5.1
Cc1cn(-c2c(F)cccc2Cl)c(=O)c2cnc(Nc3ccc4c(c3)CNCC4(C)C)nc12 [Example 73, 6-(2-chloro-6-fluorophenyl)-2-[(4,4-dimethyl-1,2,3,4-tetrahydroisoquinolin-7-yl)amino]-8-methylpyrido[4,3-d]pyrimidin-5(6H)-one]	1.5
Cc1cn(-c2c(F)cccc2Cl)c(=O)c2cnc(Nc3ccc4c(c3)CNCC43CC3)nc12 [Example 74, 6-(2-chloro-6-fluorophenyl)-2-(2′,3′-dihydro-1′H-spiro[cyclopropane-1,4′-isoquinolin]-7′-ylamino)-8-methylpyrido[4,3-d]pyrimidin-5(6H)-one]	0.6
Cc1cn(-c2c(F)cccc2Cl)c(=O)c2cnc(Nc3ccc4c(c3)CNCC4)nc12 [Example 75, 6-(2-chloro-6-fluorophenyl)-8-methyl-2-(1,2,3,4-tetrahydroisoquinolin-7-ylamino)pyrido[4,3-d]pyrimidin-5(6H)-one]	0.8
Cc1cn(-c2c(Cl)cccc2Cl)c(=O)c2cnc(Nc3ccc4c(c3)CNCC4(C)C)nc12 [Example 77, 6-(2,6-dichlorophenyl)-2-[(4,4-dimethyl-1,2,3,4-tetrahydroisoquinolin-7-yl)amino]-8-methylpyrido[4,3-d]pyrimidin-5(6H)-one]	0.3
Cc1cn(-c2c(Cl)cccc2Cl)c(=O)c2cnc(Nc3ccc(C4CCN(C)CC4)cc3)nc12 [Example 78, 6-(2,6-dichlorophenyl)-8-methyl-2-{[4-(1-methylpiperidin-4-yl)phenyl]amino}pyrido[4,3-d]pyrimidin-5(6H)-one]	0.2
Cc1cn(-c2c(Cl)cccc2Cl)c(=O)c2cnc(Nc3ccc4c(c3)CN(C)CC4(C)C)nc12 [Example 79, 6-(2,6-dichlorophenyl)-8-methyl-2-[(2,4,4-trimethyl-1,2,3,4-tetrahydroisoquinolin-7-yl)amino]pyrido[4,3-d]pyrimidin-5(6H)-one]	0.4
Cc1cn(-c2c(Cl)cccc2Cl)c(=O)c2cnc(Nc3ccc4c(c3)CNCC4)nc12 [Example 80, 6-(2,6-dichlorophenyl)-8-methyl-2-(1,2,3,4-tetrahydroisoquinolin-7-ylamino)pyrido[4,3-d]pyrimidin-5(6H)-one]	0.5
O=c1c2cnc(Nc3ccc4c(c3)CCNC4)nc2c(-c2ncc[nH]2)cn1-c1c(Cl)cccc1Cl [Example 81, 6-(2,6-dichlorophenyl)-8-(1H-imidazol-2-yl)-2-(1,2,3,4-tetrahydroisoquinolin-6-ylamino)pyrido[4,3-d]pyrimidin-5(6H)-one]	0.4
CN1CCC(c2ccc(Nc3ncc4c(=O)n(-c5c(Cl)cccc5Cl)cc(C(F)F)c4n3)cc2)CC1 [Example 82, 6-(2,6-dichlorophenyl)-8-(difluoromethyl)-2-{[4-(1-methylpiperidin-4-yl)phenyl]amino}pyrido[4,3-d]pyrimidin-5 (6H)-one]	0.1
CN(C)C1Cc2ccc(Nc3ncc4c(=O)n(-c5c(Cl)cccc5Cl)cc(C(F)F)c4n3)cc2C1 (stereo not drawn) [Example 83, 6-(2,6-dichlorophenyl)-8-(difluoromethyl)-2-{[2-(dimethylamino)-2,3-dihydro-1H-inden-5-yl]amino}pyrido[4,3-d]pyrimidin-5(6H)-one]	0.2
CN(C)C1CCN(c2ccc(Nc3ncc4c(=O)n(-c5c(Cl)cccc5Cl)cc(C(F)F)c4n3)cc2)CC1 [Example 84, 6-(2,6-dichlorophenyl)-8-(difluoromethyl)-2-({4-[4-(dimethylamino)piperidin-1-yl]phenyl}amino)pyrido[4,3-d]pyrimidin-5(6H)-one]	0.328
CC1(C)CNCc2cc(Nc3ncc4c(=O)n(-c5c(Cl)cccc5Cl)cc(C(F)F)c4n3)ccc21 [Example 85, 6-(2,6-dichlorophenyl)-8-(difluoromethyl)-2-[(4,4-dimethyl-1,2,3,4-tetrahydroisoquinolin-7-yl)amino]pyrido[4,3-d]pyrimidin-5(6H)-one]	0.265
O=c1c2cnc(Nc3ccc4c(c3)CNCC43CC3)nc2c(C(F)F)cn1-c1c(Cl)cccc1Cl [Example 86, 6-(2,6-dichlorophenyl)-8-(difluoromethyl)-2-(2′,3′-dihydro-1′H-spiro[cyclopropane-1,4′-isoquinolin]-7′-ylamino)pyrido[4,3-d]pyrimidin-5(6H)-one]	0.305
O=c1c2cnc(Nc3ccc4c(c3)CNCC4)nc2c(C(F)F)cn1-c1c(Cl)cccc1Cl [Example 87, 6-(2,6-dichlorophenyl)-8-(difluoromethyl)-2-(1,2,3,4-tetrahydroisoquinolin-7-ylamino)pyrido[4,3-d]pyrimidin-5(6H)-one]	0.254
Cc1cccc(C)c1-n1cc(C)c2nc(Nc3ccc4c(c3)CN(C)CC43CC3)ncc2c1=O [Example 88, 6-(2,6-dimethylphenyl)-8-methyl-2-[(2′-methyl-2′,3′-dihydro-1′H-spiro[cyclopropane-1,4′-isoquinolin]-7′-yl)amino]pyrido[4,3-d]pyrimidin-5(6H)-one]	0.544
Cc1cccc(C)c1-n1cc(C)c2nc(Nc3ccc(N4CCC(N(C)C)CC4)cc3)ncc2c1=O [Example 89, 2-({4-[4-(dimethylamino)piperidin-1-yl]phenyl}amino)-6-(2,6-dimethylphenyl)-8-methylpyrido[4,3-d]pyrimidin-5(6H)-one]	0.897
Cc1cccc(Cl)c1-n1cc(C)c2nc(Nc3ccc4c(c3)CN(C)CC43CC3)ncc2c1=O [Example 90, 6-(2-chloro-6-methylphenyl)-8-methyl-2-[(2′-methyl-2′,3′-dihydro-1′H-spiro[cyclopropane-1,4′-isoquinolin]-7′-yl)amino]pyrido[4,3-d]pyrimidin-5(6H)-one]	0.193
Cc1cccc(Cl)c1-n1cc(C)c2nc(Nc3ccc(N4CCC(N(C)C)CC4)cc3)ncc2c1=O [Example 91, 6-(2-chloro-6-methylphenyl)-2-({4-[4-(dimethylamino)piperidin-1-yl]phenyl}amino)-8-methylpyrido[4,3-d]pyrimidin-5(6H)-one]	0.22
Cc1cn(-c2c(Cl)cccc2Cl)c(=O)c2cnc(Nc3ccc(SCCN(C)C)cc3)nc12 [Example 92, 6-(2,6-dichlorophenyl)-2-[(4-{[2-(dimethylamino)ethyl]sulfanyl}phenyl)amino]-8-methylpyrido[4,3-d]pyrimidin-5(6H)-one]	0.378
O=c1c2cnc(Nc3ccc4c(c3)CCNC4)nc2c(C(F)F)cn1-c1c(Cl)cccc1Cl [Example 93, 6-(2,6-dichlorophenyl)-8-(difluoromethyl)-2-(1,2,3,4-tetrahydroisoquinolin-6-ylamino)pyrido[4,3-d]pyrimidin-5(6H)-one]	0.358
CN1Cc2cc(Nc3ncc4c(=O)n(-c5c(Cl)cccc5Cl)cc(C(F)F)c4n3)ccc2C2(CC2)C1 [Example 94, 6-(2,6-dichlorophenyl)-8-(difluoromethyl)-2-[(2′-methyl-2′,3′-dihydro-1′H-spiro[cyclopropane-1,4′-isoquinolin]-7′-yl)amino]pyrido[4,3-d]pyrimidin-5(6H)-one]	0.568
O=c1c2cnc(Nc3ccc4c(c3)CC(N3CCCC3)C4)nc2c(C(F)F)cn1-c1c(Cl)cccc1Cl (stereo not drawn) [Example 95, 6-(2,6-dichlorophenyl)-8-(difluoromethyl)-2-{[2-(pyrrolidin-1-yl)-2,3-dihydro-1H-inden-5-yl]amino}pyrido[4,3-d]pyrimidin-5(6H)-one]	0.38
Cc1cn(-c2c(Cl)cccc2Cl)c(=O)c2cnc(Nc3ccc(S(=O)(=O)CCN(C)C)cc3)nc12 [Example 96, 6-(2,6-dichlorophenyl)-2-[(4-{[2-(dimethylamino)ethyl]sulfonyl}phenyl)amino]-8-methylpyrido[4,3-d]pyrimidin-5(6H)-one]	1.8
Cc1cn(-c2cccc3cccnc23)c(=O)c2cnc(Nc3ccc4c(c3)CN(C)CC43CC3)nc12 [Example 97, 8-methyl-2-[(2′-methyl-2′,3′-dihydro-1′H-spiro[cyclopropane-1,4′-isoquinolin]-7′-yl)amino]-6-(quinolin-8-yl)pyrido[4,3-d]pyrimidin-5(6H)-one]	28.2
Cc1cn(-c2ccccc2Cl)c(=O)c2cnc(Nc3ccc4c(c3)CNCC4)nc12 [Example 98, 6-(2-chlorophenyl)-8-methyl-2-(1,2,3,4-tetrahydroisoquinolin-7-ylamino)pyrido[4,3-d]pyrimidin-5(6H)-one]	0.5
Cc1cn(-c2ccccc2Cl)c(=O)c2cnc(Nc3ccc(N4CCC(N(C)C)CC4)cc3)nc12 [Example 99, 6-(2-chlorophenyl)-2-({4-[4-(dimethylamino)piperidin-1-yl]phenyl}amino)-8-methylpyrido[4,3-d]pyrimidin-5(6H)-one]	0.9
Cc1cn(-c2cccc3ccccc23)c(=O)c2cnc(Nc3ccc4c(c3)CNCC4)nc12 [Example 100, 8-methyl-6-(naphthalen-1-yl)-2-(1,2,3,4-tetrahydroisoquinolin-7-ylamino)pyrido[4,3-d]pyrimidin-5(6H)-one]	4.3
Cc1cn(-c2cccc3ccccc23)c(=O)c2cnc(Nc3ccc(N4CCC(N(C)C)CC4)cc3)nc12 [Example 101, 2-({4-[4-(dimethylamino)piperidin-1-yl]phenyl}amino)-8-methyl-6-(naphthalen-1-yl)pyrido[4,3-d]pyrimidin-5(6H)-one]	2.8
